Measured values from PMC6272251, “Two New Phenolic Glucosides from Lagerstroemia speciosa” (Molecules, 2015).

How the values were obtained:
[1] = tested on: nitric oxide production in lipopolysaccharide-treated RAW264.7 cells; assay: Inhibition of LPS-induced NO production in RAW264.7 cells (Griess reagent); format: cell-based; conditions: Mus musculus, RAW 264.7 cells, compounds 30 min then LPS 1.0 μg/mL for 24 h
Experimental: RAW264.7 cells were plated at 1 × 10^6 cells/mL and incubated for 18 h. After incubation, the cells were treated with Compounds 1–12 for 30 min and then continuously incubated with LPS (1.0 μg/mL) for 24 h. The inhibitory effects of the isolated compounds on NO production were evaluated by using the Griess reagent and an EIA kit to determine the NO levels, as described previously.

RAW264.7 cells = assay: Cell viability test (MTT assay); format: cell-based; conditions: Mus musculus, RAW 264.7 cells, compounds 25 to 150 μM, 24 h
Experimental: RAW264.7 cells were plated at 1 × 10^6 cells/mL and incubated for 18 h followed by the addition of Compounds 1–12 to the cells (25 to 150 μM), and the cells were incubated for 24 h. The cytotoxicity was evaluated by an MTT (3-(4,5-dimethylthiazol-2-yl)-2,5-diphenyltetrazolium bromide) assay. The […] of MTT solution (10 mg/mL in phosphate buffered saline, pH 7.4) were added to the cells 3 h prior to the end of the culture period. The incubation was terminated by the addition of 15% sodium dodecyl sulfate to each well to solubilize the formazan. The absorbance was measured by a microplate reader at 570 nm (OD570-630).

SMILES	IC50 [1] [µM]	IC50 (RAW264.7 cells) [µM]
COc1cc(CCCO)cc(OC)c1O[C@@H]1O[C@H](CO)[C@@H](O)[C@H](O)[C@H]1O [Compound 7, dihydrosyringin]	76.2 ± 0.6	> 100
O=C(C=Cc1ccc(O)c(O)c1)OCC1OC(OC(=O)C=Cc2ccc(O)c(O)c2)C(O)C(O)C1O [Compound 5, 1,6-di-O-E-caffeoyl-β-D-glucopyranoside]	69.5 ± 1.4	> 100
O=c1c(O[C@@H]2O[C@H](CO)[C@H](O)[C@H](O)[C@H]2O)c(-c2ccc(O)c(O)c2)oc2cc(O)cc(O)c12 [Compound 3, quercetin-3-O-β-D-galactopyranoside]	81.9 ± 1.9	> 100
COc1c(O)cc2c(=O)oc3c(O)c(O)cc4c(=O)oc1c2c34 [Compound 10, 3-O-methylellagic acid]	78 ± 2.3	> 100
O=C(C=Cc1ccc(O)c(O)c1)OCC1OC(OCc2ccccc2)C(O)C(O)C1O [Compound 1, 1-O-benzyl-6-O-E-caffeoyl-β-D-glucopyranoside]	81.8 ± 1.3	> 100
COc1cc(C(O)C(O)CO)ccc1OC1OC(COC(=O)C=Cc2ccc(O)c(O)c2)C(O)C(O)C1O [Compound 2, 1-O-(7S,8R)-guaiacylglycerol-(6-O-E-caffeoyl)-β-D-glucopyranoside]	71.1 ± 1.9	87.7 ± 3.5
O=C(C=Cc1ccc(O)c(O)c1)OCC1OC(Oc2c(-c3ccc(O)c(O)c3)oc3cc(O)cc(O)c3c2=O)C(O)C(O)C1O [Compound 4, quercetin-3-O-(6''-O-E-caffeoyl)-β-D-galactopyranoside]	83.3 ± 0.9	> 100
O=C(C=Cc1ccc(O)c(O)c1)OC1OC(CO)C(O)C(O)C1O [Compound 8, 1-O-E-caffeoyl-β-D-glucopyranoside]	70.7 ± 1.2	84.8 ± 5
O=C(/C=C/c1ccc(O)c(O)c1)O[C@@H]1C[C@](O)(C(=O)O)C[C@@H](O)[C@H]1O [Compound 11, chlorogenic acid]	81.2 ± 0.7	> 100
